# Tests used:
# mitochondrial pH [1] = conditions: same cell type given the same drug in a dish
# mitochondrial pH [2] = conditions: BALB/cJ mouse, subcutaneous tumor expressing mito-pH-Countdown, before vs after administration of BAM15
# From the text: Left panel: Raw time lapse animation (grayscale) of the back of a BALB/cJ mouse carrying a subcutaneous tumor expressing mito-pH-Countdown, measured in the GFP channel of a simple fluorescence photography system. […] Orange/blue/green box marks a region expressing mito-pH-Countdown. Right panel: Average fluorescent signal vs. time for two measurements before(orange, dots) and two measurements after (blue or green, triangles) administration of the mitochondrial uncoupler BAM15. […] Light gray lines show calibration measurements for pH 7.5 (solid) and pH 8 (dashed).
smiles,measurement,setting,value
Fc1ccccc1Nc1nc2nonc2nc1Nc1ccccc1F [BAM15],shift in mitochondrial pH,mitochondrial pH [1],~1 pH unit
same,drug-induced shift in mitochondrial pH,mitochondrial pH [2],roughly 0.2 pH units

# Reference: patent publication US20240353414A1 (Calico Life Sciences LLC, priority 2021, published 2024)
